Results from patent US20210087217A1, “NUCLEOTIDE HEMI-SULFATE SALT FOR THE TREATMENT OF HEPATITIS C VIRUS” (Atea Pharmaceuticals, Inc., priority 2017, published 2021).

Experiments:
[1] = Plasma profiles of Compound 2 metabolites in monkeys; assay type: in vivo, cynomolgus monkeys; conditions: cynomolgus monkey, plasma, po
in vitro = conditions: rat
[2] = Solubility in biorelevant test medias (water, SGF, FaSSIF, FeSSIF)
[3] = Single ascending dose study of Compound 2 in healthy volunteers (Part A): safety, tolerability, pharmacokinetic; assay type: in vivo, human; conditions: both sexes, human, in vivo
Experimental: Compound 2 was tested in a single ascending dose (SAD) study to measure its safety, tolerability, and pharmacokinetic in healthy subjects (Part A). Part A was a randomized, double-blind, placebo-controlled SAD study. Healthy subjects in Part A received a single dose of Compound 2 or placebo in the fasting state. Subjects were confined to the clinic from Day −1 to Day 6.
Dosing in each cohort was staggered such that 2 subjects (1 active:1 placebo) were evaluated for 48 hours after dosing before the remainder of the cohort was dosed. Each cohort received Compound 2 in ascending order. Dosing of sequential cohorts occurred based on review of available safety data (through Day 5) and plasma pharmacokinetic data (through 24 h) of the prior cohort.
As pharmacokinetic and safety data emerged from prior cohorts, doses evaluated in Cohorts 3a-4a were adjusted by increments no more than 100 mg.
Healthy volunteers in the Part A portion of the study were male and female subjects between the ages of 18 and 65. Active and placebo recipients were pooled within each Part A cohort to preserve the study blind.
(§1) Pharmacokinetic of Compound 1 and nucleoside metabolite 1-7 were measured following the single dose of Compound 2. […] Values are reported as mean±SD, except or Tmax where median (range) is reported.

[4] = system: replicons containing the NS5B sequences from HCV patient plasma samples (GT1a, 1b, 2a, 2b, 3a-1, 3a-2, 4a and 4d); test: Replicons containing NS5B sequences from HCV patient plasma samples (clinical isolates); assay type: cell-based; conditions: clinical isolates of GT1, GT2, GT3, and GT4, FIG. 24
[5] = Plasma profiles of Compound 2 metabolites in rats; conditions: male, Sprague-Dawley, rat, plasma, po, 500 mg/kg
Experimental: The results for a single 500 mg/kg dose in rats is shown in FIG. 17 and the results for a single 30, 100, or 300 mg/kg dose in monkeys is shown in FIG. 18.

[6] = Head-to-head comparison of plasma levels in dogs dosed with Compound 1 and Compound 2; assay type: in vivo, dog; conditions: dosed Compound 1 25 mg/kg or Compound 2 30 mg/kg, normalized to a dose of 25 mg/kg
Experimental: A head-to-head comparison of dogs dosed with Compound 1 and Compound 2 was conducted.

[7] = Single ascending dose study of Compound 2 in GT1-HCV infected patients (Part B): safety, tolerability, pharmacokinetic; assay type: in vivo, human; conditions: for AUC / Cmax / half-life: mean±SD
Experimental: Subjects in Part B received a single dose of Compound 2 in the fasting state. Patients were confined to the clinic from Day −1 to Day 6.
Part B was initiated after the safety (through Day 5) and plasma pharmacokinetic (through 24 h) data review from Cohort 3a in Part A. Available safety data (through Day 5) and pharmacokinetic data (through 24 h) was reviewed for the first cohort in Part B (Cohort 1b) before enrolling subsequent Part B cohorts. Subsequent Part B cohorts were only dosed following review of available safety and pharmacokinetic data from the respective doses in Part A as well as available safety (through Day 5) from the prior Part B cohorts.
Patients infected with HCV were treatment-naïve, non-cirrhotic GT1-infected subjects with a viral load of ≥5 log10 IU/mL.
as §1
Plasma exposure of Compound 1 was dose-related while exposure of metabolite 1-7 was dose-proportional.

[8] = sofosbuvir 400 mg QD; cited from earlier work
HCV RNA (GT1a HCV) = conditions: after 1 day of 400 mg monotherapy, GT1a HCV-infected subjects; cited from earlier work
[9] = human, in vivo, 100 mg, GT1-HCV infected patients, Compound 2 100 mg
[10] = human, in vivo, 300 mg, GT1-HCV infected patients, Compound 2 300 mg (first 300 mg line)
[11] = human, in vivo, 300 mg, GT1-HCV infected patients, Compound 2 300 mg (second 300 mg line)
[12] = human, in vivo, 400 mg, GT1-HCV infected patients, Compound 2 400 mg
[13] = human, in vivo, 600 mg, GT1-HCV infected patients, Compound 2 600 mg

Work on `CNc1nc(N)nc2c1ncn2[C@@H]1O[C@H](CO[P@@](=O)(N[C@@H](C)C(=O)OC(C)C)Oc2ccccc2)[C@@H](O)[C@@]1(C)F` [Compound 1, isopropyl((S)-(((2R,3R,4R,5R)-5-(2-Amino-6-(methylamino)-9H-purin-9-yl)-4-fluoro-3-hydroxy-4-methyltetrahydrofuran-2-yl)methoxy)(phenoxy)phosphoryl)-L-alaninate] yielded an AUC(0-t) ([1]; 30 mg/kg) of 176 ng·h/mL, a Cmax ([1]; 30 mg/kg) of 63.5 ng/mL and a Tmax ([1]; 30 mg/kg) of 30 to 120 min. For the same compound, the AUC(0-t) ([1]; 100 mg/kg) was 1100 ng·h/mL, the Cmax ([1]; 100 mg/kg) was 783 ng/mL and the Tmax ([1]; 100 mg/kg) was 60 to 120 min. The AUC(0-t) ([1]; 300 mg/kg) was 1600 ng·h/mL, the Cmax ([1]; 300 mg/kg) was 501 ng/mL and the half-life (in vitro) was less than 2 min. The “Appearance in solubility test” value ([2]; FaSSIF) was “Turbid”, the Solubility descriptive term ([2]; FaSSIF) was “Slightly Soluble” and the “Appearance in solubility test” value ([2]; FeSSIF) was “Turbid”. The Solubility descriptive term ([2]; FeSSIF) was “Slightly Soluble”, the “Appearance in solubility test” value ([2]; SGF) was “Clear Solution” and the Solubility descriptive term ([2]; SGF) was “Sparingly”. The “Appearance in solubility test” value ([2]; Water) was “Clear Solution*”, the Solubility descriptive term ([2]; Water) was “Slightly Soluble” and the AUC ([3]; 50 mg) was 36.4 ± 12.3 ng·h/mL. The Cmax ([3]; 50 mg) was 46.4 ± 17.6 ng/mL, the Tmax ([3]; 50 mg) was 30 min and the half-life ([3]; 50 mg) was 19.2 ± 1.2 min. For the same compound, the AUC ([3]; 100 mg) was 167 ± 110 ng·h/mL, the Cmax ([3]; 100 mg) was 156 ± 96.3 ng/mL and the Tmax ([3]; 100 mg) was 30 min. It also gave a half-life ([3]; 100 mg) of 31.8 ± 14.4 min, an AUC ([3]; 200 mg) of 656 ± 255 ng·h/mL and a Cmax ([3]; 200 mg) of 818 ± 443 ng/mL. For the same compound, the Tmax ([3]; 200 mg) was 30 min, the half-life ([3]; 200 mg) was 42.6 ± 9.6 min and the AUC ([3]; 400 mg) was 1110 ± 326 ng·h/mL. It also gave a Cmax ([3]; 400 mg) of 1190 ± 401 ng/mL, a Tmax ([3]; 400 mg) of 30 min and a half-life ([3]; 400 mg) of 51.6 ± 9 min. For the same compound, the EC95 [4] was “less than 25 ng/mL”, the AUC(0-t) [5] was 78.2 ng·h/mL and the Cmax [5] was 60.8 ng/mL. The Tmax [5] was 15 min, the “Mean Dose-normalized AUC(0-4hr) for Compound 1” value [6] was 0.2 µM·h and the Tmax ([7]; GT1-HCV infected patients, Compound 2 300 mg (second 300 mg line), median (range)) was 0.5 (0.5-1.0) h. It also gave an AUC [7, 9] of 179 ± 54.4 ng·h/mL, a Cmax [7, 9] of 212 ± 32 ng/mL and a half-life [7, 9] of 32.4 ± 7.2 min. It also gave a Tmax ([7]; human, in vivo, 100 mg, read-out: Tmax) of 30 min, an AUC [7, 10] of 818 ± 475 ng·h/mL and a Cmax [7, 10] of 871 ± 590 ng/mL. It also gave a half-life [7, 10] of 38.4 ± 12 min, an AUC [7, 11] of 1860 ± 1020 ng·h/mL and a Cmax [7, 11] of 2280 ± 893 ng/mL. The half-life [7, 11] was 50.4 ± 10.8 min, the Tmax ([7]; human, in vivo, 300 mg, read-out: Tmax) was 30 min and the AUC [7, 12] was 2410 ± 1010 ng·h/mL. The Cmax [7, 12] was 2680 ± 2110 ng/mL, the half-life [7, 12] was 51.6 ± 10.8 min and the Tmax ([7]; human, in vivo, 400 mg, read-out: Tmax) was 60 min. The AUC [7, 13] was 4130 ± 1130 ng·h/mL, the Cmax [7, 13] was 3540 ± 1650 ng/mL and the half-life [7, 13] was 42 ± 7.8 min. It also gave a Tmax ([7]; human, in vivo, 600 mg, read-out: Tmax) of 60 min.
For `CC(C)OC(=O)[C@H](C)N[P@](=O)(OC[C@H]1O[C@@H](n2ccc(=O)[nH]c2=O)[C@](C)(F)[C@@H]1O)Oc1ccccc1` [sofosbuvir], the “Steady-state trough concentration (C24,ss) of the nucleoside metabolite” value [8] is given as “approximately 100 ng/mL” and the “HCV RNA reduction” value (HCV RNA (GT1a HCV)) is given as 2 log10 IU/mL.
